Target: T1, human OX2R (Homo sapiens, UniProt O43614)
T1 construct: expressed in transfected cells
T1 sequence (O43614 1-444): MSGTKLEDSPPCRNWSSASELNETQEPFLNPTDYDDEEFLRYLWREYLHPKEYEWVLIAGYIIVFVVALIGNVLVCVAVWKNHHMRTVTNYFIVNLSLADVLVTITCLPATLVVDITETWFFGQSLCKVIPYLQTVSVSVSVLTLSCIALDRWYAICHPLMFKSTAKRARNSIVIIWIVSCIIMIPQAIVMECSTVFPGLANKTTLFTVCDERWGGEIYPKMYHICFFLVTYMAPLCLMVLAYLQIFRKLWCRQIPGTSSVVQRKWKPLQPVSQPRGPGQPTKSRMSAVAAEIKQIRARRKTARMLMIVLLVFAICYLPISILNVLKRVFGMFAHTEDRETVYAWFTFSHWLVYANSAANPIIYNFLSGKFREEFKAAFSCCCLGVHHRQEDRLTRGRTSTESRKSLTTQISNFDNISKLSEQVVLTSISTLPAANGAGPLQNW
Assay: Measurement of OX2R agonist activity (intracellular calcium concentration change, Fluo4-AM, FDSS 7000)
Type: cell-based
Conditions: compound concentration 10 μM; human OX2R-expressing CHO-K1 cells; 1 μM human orexin A peptide = 100%, medium alone = 0%
Source text: The following abbreviations in the description, the figures and the tables have the following meanings, respectively. • AZADOL (registered trademark): 2-Hydroxy-2-azaadamantane • Boc2O: di-tert-butyl dicarbonate • DIPEA: N,N-diisopropylethylamine • DCM: dichloromethane • DMAP: 4-dimethylaminopyridine • DMF: N,N-dimethylformamide • DMSO: dimethylsulfoxide • Deoxo-Fluor: bis(2-methoxyethyl)-aminosulfur trifluoride • HATU: O-(7-azabenzotriazol-1-yl)-N,N,N′,N′-tetramethyluronium hexafluorophosphate • LDA: lithium diisopropylamide • MeCN: acetonitrile • Me4tBuXPhos: 2-di-tert-butylphosphino-3,4,5,6-tetramethyl-2′,4′,6′-triisopropyl-1,1′-biphenyl • MTBE: methyl tert-butyl ether • NMP: N-methylpyrrolidone • PdCl2(PPh3)2: dichlorobis(triphenylphosphine)palladium(II) • Pd(dba)2: bis(dibenzylideneacetone)palladium(0) • Pd2(dba)3: tris(dibenzylideneacetone)dipalladium(0) • Pd(dppf)Cl2: [1,1′-bis(diphenylphosphino)ferrocene]dichloropalladium(II) • Pd(PPh3)4: tetrakis(triphenylphosphine)palladium(0) • TEA: triethylamine • TFA: trifluoroacetic acid • THF: tetrahydrofuran • Xphos: 2-dicyclohexylphosphino-2′,4′,6′-triisopropylbiphenyl • Xphos Pd G3: (2-dicyclohexylphosphino-2′,4′,6′-triisopropyl-1,1′-biphenyl)[2-(2′-amino-1,1′-biphenyl)]palladium(II) methanesulfonic acid salt • 10% Pd/C: Palladium 10% on Carbon (wetted with ca. 55% water) • APS: aminopropylated silica gel • ODS: octadecyl-silylated silica gel • Method A: column chromatography with an aminopropylated silica gel column followed by a silica gel column • Chiral preparative column chromatography: chiral preparative column chromatography using YMC CHIRALART Cellulose-SB • Ref. No.: Reference Example Number • Str.: structural formula • Ex. No.: Example Number • Phys. data: physical data • ^1H-NMR: hydrogen nuclear magnetic resonance spectrum • CDCl3: chloroform-d1 • MS: mass spectrometry (The measured values in the tables were measured by electrospray ionization or multiionization using electrospray ionization-atmospheric pressure chemical ionization.) • Act.: activation rate of test substance at a compound concentration of 10 μM calculated by setting the fluorescence intensity obtained when human orexin A peptide was added at a concentration of 1 μM as 100% and the fluorescence intensity obtained when the medium alone was added as 0% • CHO: Chinese hamster ovary • HEPES: 2-[4-(2-hydroxyethyl)-1-piperazinyl]ethanesulfonic acid
A human OX2R sequence (Accession No. NM_001526.4) was inserted into the multiple cloning site of pcDNA3.4 (Life Technologies Japan Ltd.) to clone a plasmid vector for human OX2R expression. The plasmid was introduced into CHO-K1 cells using Lipofectamine 2000 (Life Technologies Japan Ltd.). Two days later, the transgenic CHO-K1 cells were passaged into 175T flasks and cultured selectively for 6 days. As a selection medium, Ham's F-12 Nutrient Mix (Life Technologies Japan Ltd.), containing Geneticin (registered trademark) (Life Technologies Japan Ltd.) at a final concentration of 1 mg/mL and inactivated fetal bovine serum (Biowest) at a final concentration of 10%, was used. After the selective culture, the cells were reseeded into 96-well plates, and a human OX2R-expressing cell line was obtained by limiting dilution.
The agonist effects of test substances on human OX2R were evaluated using the intracellular calcium concentration-change upon stimulation as an indicator. A day before measurement of the intracellular calcium concentrations, human OX2R-expressing cells suspended in a medium were seeded into 384-well plates at 5×10^3 cells/50 μL/well and cultured overnight in an incubator set at 37° C. and 5% CO2. After incubation, the medium was removed and replaced with 20 μL of a loading buffer. […]

Row | SMILES | Act. (%): activation rate of test substance
1 | CON(C)C(=O)[C@]1(Cc2cccc(-c3ncccn3)c2)C[C@@H](NS(C)(=O)=O)C(F)(F)C1 [Example 65, (1R,4R)-3,3-Difluoro-N-methoxy-N-methyl-4-(methylsulfonamido)-1-(3-(pyrimidin-2-yl)benzyl)cyclopentane-1-carboxamide] | 86%
2 | CON(C)C(=O)[C@]1(Cc2cccc(-c3ncc(F)cn3)c2)C[C@@H](NS(=O)(=O)N(C)C)C(F)(F)C1 (relative stereo) [Example 41] | 93%
3 | C[C@@H]1CCCN1C(=O)[C@@]1(Cc2cccc(-c3ccccc3)c2)CC[C@H](NS(C)(=O)=O)C1 (relative stereo) [Example 9] | 58%
4 | CS(=O)(=O)N[C@H]1CC[C@](Cc2cccc(-c3ccccc3)c2)(C(=O)N2CCCC2C(F)(F)F)C1 (relative stereo) [Example 71, N-((1S*,3R*)-3-([1,1′-Biphenyl]-3-ylmethyl)-3-(2-(trifluoromethyl)pyrrolidine-1-carbonyl)cyclopentyl)methanesulfonamide] | 41%
5 | CON(C)C(=O)[C@@]1(Cc2cc(-c3ncccn3)ccc2F)CC[C@H](NS(C)(=O)=O)C1 (relative stereo) [Example 26] | 99%
6 | CON(C)C(=O)[C@@]1(Cc2cccc(-c3nc(C)co3)c2)CC[C@H](NS(C)(=O)=O)C1 (relative stereo) [Example 13] | 90%
7 | CON(C)C(=O)[C@@]1(Cc2ccc(Cl)c(-c3ncc(F)cn3)c2)CC[C@H](NS(C)(=O)=O)C1 [Example 49, (1R,3S)-1-(4-Chloro-3-(5-fluoropyrimidin-2-yl)benzyl)-N-methoxy-N-methyl-3-(methylsulfonamido)cyclopentane-1-carboxamide] | 88%
8 | CON(C)C(=O)[C@@]1(Cc2ccc(F)c(-c3cc(F)cc(F)c3)c2)CC[C@H](NS(C)(=O)=O)C1 (relative stereo) [Example 5] | 73%
9 | CON(C)C(=O)[C@@]1(Cc2cccc(-c3ncc(F)cn3)c2)C[C@@H](C)[C@H](NS(C)(=O)=O)C1 (relative stereo) [Example 44, (1R*,3R*,4R*)-1-(3-(5-Fluoropyrimidin-2-yl)benzyl)-N-methoxy-N,3-dimethyl-4-(methylsulfonamido)cyclopentane-1-carboxamide] | 96%
10 | CO[C@H]1CCN(C(=O)[C@@]2(Cc3cccc(-c4ccccc4)c3)CC[C@H](NS(C)(=O)=O)C2)C1 (relative stereo) [Example 70] | 27%
11 | CON(C)C(=O)[C@@]1(Cc2cccc(-c3ccc(F)cn3)c2)CC[C@H](NS(C)(=O)=O)C1 (relative stereo) [Example 12, (1R*,3S*)-1-(3-(5-Fluoropyridin-2-yl)benzyl)-N-methoxy-N-methyl-3-(methylsulfonamido)cyclopentane-1-carboxamide] | 86%
12 | CCS(=O)(=O)N[C@@H]1C[C@@](Cc2cccc(-c3ncc(F)cn3)c2)(C(=O)N(C)OC)C[C@@H]1F [Example 59, (1R,3R,4S)-3-(Ethylsulfonamido)-4-fluoro-1-(3-(5-fluoropyrimidin-2-yl)benzyl)-N-methoxy-N-methylcyclopentane-1-carboxamide] | 98%
13 | CON(C)C(=O)[C@@]1(Cc2ccc(F)c(-c3ncc(Cl)cn3)c2)CC[C@H](NS(C)(=O)=O)C1 (relative stereo) [Example 23] | 83%
14 | COCCNC(=O)[C@@]1(Cc2cccc(-c3ccccc3)c2)CC[C@H](NS(C)(=O)=O)C1 (relative stereo) [Example 69] | 44%
15 | CON(C)C(=O)[C@@]1(Cc2cccc(-c3ncccn3)c2)CC[C@H](NS(=O)(=O)C2(C)CC2)C1 (relative stereo) [Example 31, (1R*,3S*)—N-Methoxy-N-methyl-3-((1-methylcyclopropane)-1-sulfonamido)-1-(3-(pyrimidin-2-yl)benzyl)cyclopentane-1-carboxamide] | 107%
16 | CON(C)C(=O)[C@@]1(Cc2ccc(O)c(-c3ncc(F)cn3)c2)CC[C@H](NS(C)(=O)=O)C1 [Example 55, (1R,3S)-1-(3-(5-Fluoropyrimidin-2-yl)-4-hydroxybenzyl)-N-methoxy-N-methyl-3-(methylsulfonamido)cyclopentane-1-carboxamide] | 106%
17 | CON(C)C(=O)[C@@]1(Cc2ccc(Cl)c(-c3ncc(F)cn3)c2)C[C@H](F)[C@H](NS(C)(=O)=O)C1 [Example 62, (1R,3S,4R)-1-(4-Chloro-3-(5-fluoropyrimidin-2-yl)benzyl)-3-fluoro-N-methoxy-N-methyl-4-(methylsulfonamido)cyclopentane-1-carboxamide] | 96%
18 | CONC(=O)[C@@]1(Cc2cccc(-c3ncccn3)c2)CC[C@H](NS(C)(=O)=O)C1 (relative stereo) [Example 29, (1R*,3S*)—N-Methoxy-3-(methylsulfonamido)-1-(3-(pyrimidin-2-yl)benzyl)cyclopentane-1-carboxamide] | 47%
19 | CON(C)C(=O)[C@@]1(Cc2cccc(-c3ncc(N(C)C)cn3)c2)CC[C@H](NS(C)(=O)=O)C1 (relative stereo) [Example 21, (1R*,3S*)-1-(3-(5-(Dimethylamino)pyrimidin-2-yl)benzyl)-N-methoxy-N-methyl-3-(methylsulfonamido)cyclopentane-1-carboxamide] | 48%
20 | CS(=O)(=O)N[C@H]1CC[C@](Cc2cccc(-c3ccccc3)c2)(C(=O)N2CCC(F)(F)C2)C1 (relative stereo) [Example 75] | 23%
21 | CS(=O)(=O)N[C@H]1CC[C@](Cc2cccc(-c3ccccc3)c2)(C(=O)N2CCCO2)C1 (relative stereo) [Example 7, N-((1S*,3R*)-3-([1,1′-Biphenyl]-3-ylmethyl)-3-(isoxazolidine-2-carbonyl)cyclopentyl)methanesulfonamide] | 70%
22 | CON(C)C(=O)[C@@]1(Cc2ccc(F)c(-c3ccccc3F)c2)CC[C@H](NS(C)(=O)=O)C1 (relative stereo) [Example 3, (1R*,3S*)-1-((2′,6-Difluoro-[1,1′-biphenyl]-3-yl)methyl)-N-methoxy-N-methyl-3-(methylsulfonamido)cyclopentane-1-carboxamide] | 93%
23 | CON(C)C(=O)[C@@]1(Cc2ccc(F)c(-c3ncc(F)cn3)c2)CC[C@H](NS(=O)(=O)C(F)F)C1 [Example 51, (1R,3S)-3-((Difluoromethyl)sulfonamido)-1-(4-fluoro-3-(5-fluoropyrimidin-2-yl)benzyl)-N-methoxy-N-methylcyclopentane-1-carboxamide] | 98%
